Molecules are shown by their SMILES. Active and inactive are the calls of the source. Some results are limits rather than exact numbers.

Experiment [1] addresses Neuropeptide Y receptor type 2 (Homo sapiens, UniProt P49146). It is filed as functional, cell-based.
The target in experiment [2] is Neuropeptide Y receptor type 1 (Homo sapiens, UniProt P25929). In kind it is functional.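 Further: HEK293 cells with a CNG channel challenged with NPY then isoproterenol; potency as antagonist that reverses NPY suppression of cAMP signal.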
Experiment [3] concerns the target T1, Mothers against decapentaplegic homolog 3 (Homo sapiens, UniProt P84022). The experiment in a line: blockers of Smad3 complex formation in lysate – cell lysate, secondary confirmation, chemiluminescent ELISA, HEK293 lysate, dose response (AID 1058). It is filed as functional. (In general: In an ELISA, binding on a coated surface is turned into a signal by an enzyme label.)

The target of experiment [4] is Cytochrome P450 2D6 (Homo sapiens, UniProt P10635). The experiment in a line: qHTS Assay for Inhibitors and Substrates of Cytochrome P450 2D6. [Related pubchem assays: 410 ]. In kind it is ADME. The conditions noted are these: read-out: Potency. Background: Quantitative high-throughput screening tests each substance at several concentrations.
The target of experiment [5] is 26S proteasome non-ATPase regulatory subunit 14 (Homo sapiens, UniProt O00487). The experiment can be described thus: inhibition of proteasome subunit RPN11 – biochemical, fluorescence polarization, uHTS hits, confirmation (AID 602368). In kind it is functional. On the technique in general: Polarisation of emitted light reports the rotation of a fluorescent probe.

Experiment [6] has as its target Protein-tyrosine kinase 2-beta (Homo sapiens, UniProt Q14289).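 Further: potency of inhibitors of PYK2 kinase phosphorylation of poly-GT substrate.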
Experiment [7] addresses T1, Mothers against decapentaplegic homolog 3. The experiment in a line: inhibitors of SMAD-driven TGF-beta signaling – dose response (AID 715). In kind it is functional.
In experiment [8] the target is Prothrombin (Bos taurus, UniProt P00735). The experiment can be described thus: thrombin protease inhibitors – biochemical, fluorescence polarization, uHTS hits, dose response (AID 602369). It is filed as functional.
Experiment [9] deals with 72 kDa type IV collagenase (Homo sapiens, UniProt P08253). The experiment in a line: Dose Response validation of uHTS RPN11 inhibitor hits using a MMP-2 Fluorescence assay. In kind it is functional.
Chain of 72 kDa type IV collagenase (P08253 whole entry): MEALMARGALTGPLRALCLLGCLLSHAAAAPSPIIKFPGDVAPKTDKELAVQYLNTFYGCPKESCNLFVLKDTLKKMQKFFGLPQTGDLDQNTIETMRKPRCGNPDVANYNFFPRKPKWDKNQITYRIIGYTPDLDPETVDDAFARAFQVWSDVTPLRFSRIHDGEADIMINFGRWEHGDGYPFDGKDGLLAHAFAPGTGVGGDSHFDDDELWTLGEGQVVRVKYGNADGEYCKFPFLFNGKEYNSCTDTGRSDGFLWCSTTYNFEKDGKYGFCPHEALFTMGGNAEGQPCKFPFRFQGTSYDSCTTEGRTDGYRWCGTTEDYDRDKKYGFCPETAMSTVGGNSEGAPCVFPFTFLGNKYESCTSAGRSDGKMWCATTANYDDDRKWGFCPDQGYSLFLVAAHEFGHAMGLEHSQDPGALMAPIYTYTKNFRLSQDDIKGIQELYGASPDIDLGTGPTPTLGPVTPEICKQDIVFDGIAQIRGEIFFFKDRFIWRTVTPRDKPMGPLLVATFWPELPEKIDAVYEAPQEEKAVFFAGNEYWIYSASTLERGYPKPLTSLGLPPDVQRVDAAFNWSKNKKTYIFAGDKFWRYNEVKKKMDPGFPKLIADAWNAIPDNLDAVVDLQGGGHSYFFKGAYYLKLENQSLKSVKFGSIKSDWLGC

T1 sequence (P84022 whole entry): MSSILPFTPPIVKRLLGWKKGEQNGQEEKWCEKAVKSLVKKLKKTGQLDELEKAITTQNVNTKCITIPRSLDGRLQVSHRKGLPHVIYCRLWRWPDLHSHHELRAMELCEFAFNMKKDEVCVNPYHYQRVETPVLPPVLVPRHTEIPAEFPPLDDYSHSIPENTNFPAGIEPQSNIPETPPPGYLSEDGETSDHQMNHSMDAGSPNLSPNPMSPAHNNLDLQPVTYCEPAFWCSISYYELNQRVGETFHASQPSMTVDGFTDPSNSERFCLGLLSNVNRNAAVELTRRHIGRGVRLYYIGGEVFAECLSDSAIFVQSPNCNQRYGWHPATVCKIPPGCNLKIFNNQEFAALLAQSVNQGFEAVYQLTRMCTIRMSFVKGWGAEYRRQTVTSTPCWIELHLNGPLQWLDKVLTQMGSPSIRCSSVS
Chain of Protein-tyrosine kinase 2-beta (Q14289 whole entry): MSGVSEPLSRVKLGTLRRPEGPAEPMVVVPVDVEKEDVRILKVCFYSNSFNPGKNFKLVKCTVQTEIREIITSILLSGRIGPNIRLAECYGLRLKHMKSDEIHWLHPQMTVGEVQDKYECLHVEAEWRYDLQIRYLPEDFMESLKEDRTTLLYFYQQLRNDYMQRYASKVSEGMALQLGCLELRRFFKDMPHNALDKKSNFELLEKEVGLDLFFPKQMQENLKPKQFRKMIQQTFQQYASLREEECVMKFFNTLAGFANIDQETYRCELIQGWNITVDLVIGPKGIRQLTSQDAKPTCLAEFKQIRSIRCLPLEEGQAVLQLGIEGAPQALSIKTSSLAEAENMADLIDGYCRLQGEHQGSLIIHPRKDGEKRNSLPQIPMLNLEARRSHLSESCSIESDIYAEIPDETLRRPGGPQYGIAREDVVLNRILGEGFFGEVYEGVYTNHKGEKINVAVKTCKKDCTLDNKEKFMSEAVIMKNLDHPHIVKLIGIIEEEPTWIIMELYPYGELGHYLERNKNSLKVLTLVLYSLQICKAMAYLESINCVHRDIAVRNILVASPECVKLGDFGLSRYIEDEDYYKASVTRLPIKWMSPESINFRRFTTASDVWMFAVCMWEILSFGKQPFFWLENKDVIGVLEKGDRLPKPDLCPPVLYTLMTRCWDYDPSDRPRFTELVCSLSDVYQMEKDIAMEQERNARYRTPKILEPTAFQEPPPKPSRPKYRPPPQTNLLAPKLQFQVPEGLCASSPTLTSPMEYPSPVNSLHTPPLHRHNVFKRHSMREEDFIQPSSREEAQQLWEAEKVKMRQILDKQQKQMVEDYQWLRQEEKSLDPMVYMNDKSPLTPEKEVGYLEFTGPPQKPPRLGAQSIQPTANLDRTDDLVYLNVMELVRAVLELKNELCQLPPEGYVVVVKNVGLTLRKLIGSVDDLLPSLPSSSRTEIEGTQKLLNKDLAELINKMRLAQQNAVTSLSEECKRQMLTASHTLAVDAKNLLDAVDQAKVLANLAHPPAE
Chain of Neuropeptide Y receptor type 1 (P25929 whole entry): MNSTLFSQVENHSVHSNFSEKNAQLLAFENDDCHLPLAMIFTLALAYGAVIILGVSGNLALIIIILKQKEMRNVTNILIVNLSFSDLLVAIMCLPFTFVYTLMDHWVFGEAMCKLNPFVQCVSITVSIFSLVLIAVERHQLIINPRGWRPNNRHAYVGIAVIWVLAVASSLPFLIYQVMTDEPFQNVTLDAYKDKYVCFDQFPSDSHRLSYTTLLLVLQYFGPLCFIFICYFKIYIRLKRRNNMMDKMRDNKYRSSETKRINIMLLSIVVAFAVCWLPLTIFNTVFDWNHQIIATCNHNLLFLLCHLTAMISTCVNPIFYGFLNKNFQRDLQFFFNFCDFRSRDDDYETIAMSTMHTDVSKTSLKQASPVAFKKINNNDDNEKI
Chain of 26S proteasome non-ATPase regulatory subunit 14 (O00487 whole entry): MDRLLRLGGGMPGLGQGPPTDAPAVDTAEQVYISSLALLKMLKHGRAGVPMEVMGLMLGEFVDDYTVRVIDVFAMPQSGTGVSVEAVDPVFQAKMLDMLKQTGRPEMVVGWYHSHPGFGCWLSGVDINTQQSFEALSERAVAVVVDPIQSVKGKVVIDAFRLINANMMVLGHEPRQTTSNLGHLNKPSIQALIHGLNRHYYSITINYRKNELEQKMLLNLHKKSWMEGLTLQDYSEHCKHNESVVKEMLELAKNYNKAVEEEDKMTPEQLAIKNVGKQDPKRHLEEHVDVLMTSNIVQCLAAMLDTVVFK
Chain of Cytochrome P450 2D6 (P10635 whole entry): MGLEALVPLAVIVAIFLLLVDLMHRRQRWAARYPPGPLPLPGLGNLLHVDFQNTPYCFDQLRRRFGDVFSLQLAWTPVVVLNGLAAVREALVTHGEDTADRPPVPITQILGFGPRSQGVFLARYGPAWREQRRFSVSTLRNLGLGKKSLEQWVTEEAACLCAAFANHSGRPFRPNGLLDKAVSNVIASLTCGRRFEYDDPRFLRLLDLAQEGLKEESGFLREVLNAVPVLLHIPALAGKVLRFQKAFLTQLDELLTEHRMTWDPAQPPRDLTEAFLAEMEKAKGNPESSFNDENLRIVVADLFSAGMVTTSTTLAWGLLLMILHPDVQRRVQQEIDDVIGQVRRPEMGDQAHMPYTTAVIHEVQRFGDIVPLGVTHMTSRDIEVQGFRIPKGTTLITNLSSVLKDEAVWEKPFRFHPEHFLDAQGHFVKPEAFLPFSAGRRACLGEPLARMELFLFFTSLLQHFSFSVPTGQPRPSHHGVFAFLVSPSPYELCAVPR
Chain of Neuropeptide Y receptor type 2 (P49146 whole entry): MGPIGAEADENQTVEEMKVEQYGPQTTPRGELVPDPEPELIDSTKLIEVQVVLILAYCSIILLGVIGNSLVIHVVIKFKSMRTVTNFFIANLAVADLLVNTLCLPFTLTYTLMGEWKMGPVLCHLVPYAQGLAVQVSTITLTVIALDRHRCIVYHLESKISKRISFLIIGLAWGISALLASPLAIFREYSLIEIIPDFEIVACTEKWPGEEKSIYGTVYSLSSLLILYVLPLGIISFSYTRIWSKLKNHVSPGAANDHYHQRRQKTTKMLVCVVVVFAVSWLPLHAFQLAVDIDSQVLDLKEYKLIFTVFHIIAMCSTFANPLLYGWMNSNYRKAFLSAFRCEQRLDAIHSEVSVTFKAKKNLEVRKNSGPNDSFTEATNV

Take `COc1ccc(Cn2c(/C=C/c3ccccc3)nc3ccccc32)cc1`: the results for the IC50 in experiment [1] and in experiment [2] were 5.51 µM (active) and 4.02 µM (active), respectively.

As for `Oc1cc2c(cc1C(c1ccc3c(c1)OCO3)N1CCCCC1)OCO2` (centres undefined), the IC50 (as a rule, the midpoint of a concentration-inhibition curve) in [3] was > 40 µM (not active).

In the case of `COc1ccc(C[C@@H]2NC[C@H](O)[C@H]2OC(C)=O)cc1`, the AC50 in [4] was 20 µM (inconclusive).

`O=C(NCCCN1CCCCCC1)c1ccc(CS(=O)(=O)Cc2ccccc2F)o1`: the half-maximal inhibitory concentration (IC50) in experiment [5] was 7.28 µM (active); in [6], 13.1 µM (not active); in [7], 4.1 µM (active); in [8] it was 68.8 µM (active); in experiment [9] it was > 100 µM (inactive).
